EP4603105A1, “PHARMACEUTICAL COMPOSITION CONTAINING CYCLIC COMPOUND HAVING SELECTIVE KRAS INHIBITORY EFFECT AGAINST HRAS AND NRAS” (CHUGAI SEIYAKU KABUSHIKI KAISHA, priority 2022, dated 2024)

How the values were obtained:
[1] = biological target: GDP-bound NRAS wild-type protein (Homo sapiens, UniProt P01111); assay: Binding to NRAS by surface plasmon resonance (SPR), KD and KD ratio to KRAS
Summary of the method: (§1)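 Measured at 30°C: SPR with GDP-loaded, E. coli-expressed biotin-Avi RAS captured (~100–300 RU), ascending 75 s compound injections, HBS pH 7.4 with GDP, MgCl2, 4% DMSO. KD from 1:1 fit.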

[2] = biological target: GDP-bound KRAS wild-type protein (Homo sapiens, UniProt P01116); assay: Binding to KRAS by surface plasmon resonance (SPR), dissociation constant KD
Summary of the method: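 SPR, 30°C: Avi-biotin RAS·GDP captured via Biotin CAPture (~100–300 RU); running buffer HBS pH 7.4, 1 mM DTT, 10 mM MgCl2, 0.01% Tween 20, 10 µM GDP, 4% DMSO. Single-cycle kinetics, 100 µL/min, 75 s injections; 1:1 model → KD.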

[3] = test system: human lung cancer strain NCI-H441; format: cell-based
Summary of the method: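 Signal came from […] measured per well once the reagent was added. Beforehand, cells were cultured at 37°C and 5% carbon dioxide on a compound series serially diluted in dimethyl sulfoxide.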

HRAS wild-type protein = HRAS wild-type protein (Homo sapiens, UniProt P01112); assay: Binding to HRAS by surface plasmon resonance (SPR), KD and KD ratio to KRAS
Summary of the method: as §1

[4] = ratio of KD for GDP-bound NRAS wild-type protein to KD for KRAS
[5] = ratio of KD for HRAS wild-type protein to KD for KRAS
[6] = ratio of the KD value with respect to GDP-bound NRAS wild-type protein to the KD value with respect to KRAS
[7] = Single Cycle Kinetics, 1:1 binding model
[8] = ratio of the KD value with respect to HRAS wild-type protein to the KD value with respect to KRAS
[9] = ratio of KD value for GDP-bound NRAS wild-type protein to KD value for KRAS (SPR)
[10] = ratio of KD value for HRAS wild-type protein to KD value for KRAS (SPR)

Chain of HRAS wild-type protein (P01112 whole entry): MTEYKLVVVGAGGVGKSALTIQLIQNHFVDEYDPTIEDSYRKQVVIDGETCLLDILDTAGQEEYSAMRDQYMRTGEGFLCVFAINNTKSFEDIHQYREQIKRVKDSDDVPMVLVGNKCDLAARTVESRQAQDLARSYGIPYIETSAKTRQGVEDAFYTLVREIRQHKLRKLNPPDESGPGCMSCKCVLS
Chain of GDP-bound NRAS wild-type protein (P01111 whole entry): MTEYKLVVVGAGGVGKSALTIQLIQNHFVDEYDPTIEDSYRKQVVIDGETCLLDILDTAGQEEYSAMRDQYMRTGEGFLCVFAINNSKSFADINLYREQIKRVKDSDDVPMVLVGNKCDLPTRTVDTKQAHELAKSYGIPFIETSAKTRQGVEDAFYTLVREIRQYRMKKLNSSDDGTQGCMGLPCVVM
Chain of GDP-bound KRAS wild-type protein (P01116 1-188 isoform P01116-2): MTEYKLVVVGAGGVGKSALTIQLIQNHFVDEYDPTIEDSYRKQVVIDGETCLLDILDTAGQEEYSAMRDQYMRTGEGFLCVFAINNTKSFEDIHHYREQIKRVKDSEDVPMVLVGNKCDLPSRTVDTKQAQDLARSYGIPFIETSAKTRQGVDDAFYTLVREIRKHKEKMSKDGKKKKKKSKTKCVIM

Structure (SMILES)	Kd ([2]; 1:1 binding model)	IC50 [3]	Kd [2, 7]	Kd ([2]; Single Cycle Kinetics)	NRAS /KRAS [1, 4]	HRAS /KRAS (HRAS wild-type protein; [5])	NRAS /KRAS [1, 6]	HRAS /KRAS (HRAS wild-type protein; [8])	NRAS /KRAS [1, 9]	HRAS /KRAS (HRAS wild-type protein; [10])
CCO[C@@H]1C[C@H]2C(=O)NC3(CCC3)C(=O)N(C)[C@@H](C3CCCC3)C(=O)N(C)[C@H](C(=O)N3CCOCC3)CC(=O)N(C)[C@@H](CC(C)C)C(=O)N[C@@H]([C@@H](C)CC)C(=O)N(C)CC(=O)N(C)[C@H]3CCCCCN(C3=O)[C@@H](Cc3ccc(F)cc3)C(=O)N(C)CC(=O)N[C@@H](CCc3ccc(C(F)(F)F)c(Cl)c3)C(=O)N2C1 [PP0968]	–	38.8 nM	–	0.32 nM	B (a compound having 3 or more and less than 10 is denoted as B)	B (a compound having 3 or more and less than 10 is denoted as B)	–	–	–	–
CC[C@H](C)[C@@H]1NC(=O)[C@H](CC(C)C)N(C)C(=O)C[C@@H](C(=O)N(C)C)N(C)C(=O)[C@H](C2CCCC2)N(C)C(=O)C2(CCC2)N(C)C(=O)[C@@H]2CCCN2C(=O)[C@H](CCc2cc(F)c(C(F)(F)F)c(F)c2)NC(=O)CN(C)C(=O)[C@H](Cc2ccc(C)cc2)N2CC/C=C\C[C@@H](C2=O)N(C)C(=O)CN(C)C1=O [PP1791]	–	3.7 nM	0.042 nM	–	–	–	–	–	A (a compound having 10 or more and less than 20 is denoted as A)	A (a compound having 10 or more and less than 20 is denoted as A)
CCO[C@@H]1C[C@H]2C(=O)NC3(CCC3)C(=O)N(C)[C@@H](C3CCCC3)C(=O)N(C)[C@H](C(=O)N3CCOCC3)CC(=O)N(C)[C@@H](Cc3cscn3)C(=O)N[C@@H]([C@@H](C)CC)C(=O)N(C)CC(=O)N(C)[C@H]3CCCCCN(C3=O)[C@@H](Cc3ccc(C(F)(F)F)cc3)C(=O)N(C)CC(=O)N[C@@H](CCc3cc(F)c(C(F)(F)F)c(F)c3)C(=O)N2C1 [PP0855]	–	114 nM	–	0.84 nM	B (a compound having 3 or more and less than 10 is denoted as B)	B (a compound having 3 or more and less than 10 is denoted as B)	–	–	–	–
CCO[C@@H]1C[C@H]2C(=O)NC3(CCC3)C(=O)N(C)[C@@H](C3CCCC3)C(=O)N(C)[C@H](C(=O)N(C)C)CC(=O)N(C)[C@@H](CC3CCCC3)C(=O)N[C@@H]([C@@H](C)CC)C(=O)N(C)CC(=O)N(C)[C@H]3C/C=C\CCN(C3=O)[C@@H](Cc3ccc(C)cc3)C(=O)N(C)CC(=O)N[C@@H](CCc3ccc(C(F)(F)F)c(C4CC4)c3)C(=O)N2C1 [PP2681]	0.37 nM	29.1 nM	–	–	A (a compound having 10 or more and less than 20 is denoted as A)	A (a compound having 10 or more and less than 20 is denoted as A)	–	–	–	–
CCCOC[C@H]1C(=O)N[C@@H]([C@@H](C)CC)C(=O)N(C)CC(=O)N(C)[C@H]2C/C=C\CCN(C2=O)[C@@H](Cc2ccc(C)cc2)C(=O)N(C)CC(=O)N[C@@H](CCc2cc(F)c(C(F)(F)F)c(F)c2)C(=O)N2C[C@H](CCC)C[C@H]2C(=O)NC2(CCC2)C(=O)N(C)[C@@H](C2CCCC2)C(=O)N(C)[C@H](C(=O)N(C)C)CC(=O)N1C [PP2232]	–	18.7 nM	0.22 nM	–	–	–	A (a compound having 10 or more and less than 20 is denoted as A)	A (a compound having 10 or more and less than 20 is denoted as A)	–	–
CCO[C@@H]1C[C@H]2C(=O)NC3(CC(C)(C)C3)C(=O)N(C)[C@@H](C3CCCC3)C(=O)N(C)[C@H](C(=O)N(C)C)CC(=O)N(C)[C@@H]([C@H](C)OC)C(=O)N[C@@H]([C@@H](C)CC)C(=O)N(C3CC3)CC(=O)N(C)[C@H]3C/C=C\CCN(C3=O)[C@@H](Cc3ccc(C)cc3)C(=O)N(C)CC(=O)N[C@@H](CCc3cc(F)c(C(F)(F)F)c(F)c3)C(=O)N2C1 [PP3193]	0.35 nM	21.1 nM	–	–	A (a compound having 10 or more and less than 20 is denoted as A)	A (a compound having 10 or more and less than 20 is denoted as A)	–	–	–	–

Second part, led by results:

Kd ([2]; 1:1 binding model)	IC50 [3]	Kd [2, 7]	Kd ([2]; Single Cycle Kinetics)	Structure (SMILES)	NRAS /KRAS [1, 4]	HRAS /KRAS (HRAS wild-type protein; [5])	NRAS /KRAS [1, 6]	HRAS /KRAS (HRAS wild-type protein; [8])	NRAS /KRAS [1, 9]	HRAS /KRAS (HRAS wild-type protein; [10])
0.056 nM	7.9 nM	–	–	CCCC[C@H]1C(=O)N[C@@H]([C@@H](C)CC)C(=O)N(C)CC(=O)N(C)[C@H]2C/C=C\CCN(C2=O)[C@@H](Cc2ccc(C)cc2)C(=O)N(C)CC(=O)N[C@@H](CCc2cc(F)c(C(F)(F)F)c(F)c2)C(=O)N2C[C@H](OCC)C[C@H]2C(=O)NC2(CC(C)(C)C2)C(=O)N(C)[C@@H](C2CCCC2)C(=O)N(C)[C@H](C(=O)N(C)C)CC(=O)N1C [PP2800]	A (a compound having 10 or more and less than 20 is denoted as A)	A (a compound having 10 or more and less than 20 is denoted as A)	–	–	–	–
3 nM	39.8 nM	–	–	CCC[C@H]1C(=O)N[C@@H]([C@@H](C)CC)C(=O)N(C)CC(=O)N(C)[C@H]2C/C=C\CCN(C2=O)[C@@H](Cc2ccc(C)cc2)C(=O)N(C)CC(=O)N[C@@H](CCc2ccc3c(C)cn(C)c3c2)C(=O)N2C[C@H](OCC)C[C@H]2C(=O)NC2(CC(C)(C)C2)C(=O)N(C)[C@@H](C(CC)CC)C(=O)N(C)[C@H](C(=O)N(C)C)CC(=O)N1C [PP2910]	AA (a compound having 20 or more is denoted as AA)	A (a compound having 10 or more and less than 20 is denoted as A)	–	–	–	–
–	19.5 nM	0.72 nM	–	CCO[C@@H]1C[C@H]2C(=O)NC3(CC(C)(C)C3)C(=O)N(C)[C@@H](C(CC)CC)C(=O)N(C)[C@H](C(=O)N(C)C)CC(=O)N(C)[C@@H](CC3CC3)C(=O)N[C@@H]([C@@H](C)CC)C(=O)N(C)CC(=O)N(C)[C@H]3C/C=C\CCN(C3=O)[C@@H](Cc3ccc(C)cc3)C(=O)N(C)CC(=O)N[C@@H](CCc3ccc(Cl)c(Cl)c3)C(=O)N2C1 [PP2182]	–	–	AA (a compound having 20 or more is denoted as AA)	A (a compound having 10 or more and less than 20 is denoted as A)	–	–
2 nM	620 nM	–	–	CCO[C@@H]1C[C@H]2C(=O)NC3(CC(C)(C)C3)C(=O)N(C)[C@@H](C3CCCC3)C(=O)N(C)[C@H](C(=O)N(C)CC)CC(=O)N(C)[C@@H](CC(C)C)C(=O)N[C@@H]([C@@H](C)CC)C(=O)N(C)CC(=O)N(C)[C@H]3C/C=C\CCN(C3=O)[C@@H](Cc3ccc(C(F)F)cc3)C(=O)N(C)CC(=O)N[C@@H](CCc3ccc4c(c3)CCC4(F)F)C(=O)N2C1 [PP3152]	AA (a compound having 20 or more is denoted as AA)	A (a compound having 10 or more and less than 20 is denoted as A)	–	–	–	–
0.66 nM	53.6 nM	–	–	CCC[C@H]1C(=O)N[C@@H](C2CCOCC2)C(=O)N(C)CC(=O)N(C)[C@H]2C/C=C\CCN(C2=O)[C@@H](Cc2ccc(C)cc2)C(=O)N(C)CC(=O)N[C@@H](CCc2ccc(C(F)(F)F)c(Cl)c2)C(=O)N2C[C@H](OCC)C[C@H]2C(=O)NC2(CC(C)(C)C2)C(=O)N(C)[C@@H](CC(C)(C)C)C(=O)N(C)[C@H](C(=O)N(C)C)CC(=O)N1C [PP3026]	A (a compound having 10 or more and less than 20 is denoted as A)	A (a compound having 10 or more and less than 20 is denoted as A)	–	–	–	–
–	3.5 nM	0.074 nM	–	CCC[C@H]1C(=O)N[C@@H]([C@@H](C)CC)C(=O)N(C)CC(=O)N(C)[C@H]2C/C=C\CCN(C2=O)[C@@H](Cc2ccc(C)cc2)C(=O)N(C)CC(=O)N[C@@H](CCc2ccc(C(F)(F)F)c(OC)c2)C(=O)N2C[C@@H](C)C[C@H]2C(=O)NC2(CC(C)(C)C2)C(=O)N(C)[C@@H](C2CCCC2)C(=O)N(C)[C@H](C(=O)N(C)C)CC(=O)N1C [PP1888]	–	–	–	–	A (a compound having 10 or more and less than 20 is denoted as A)	B (a compound having 3 or more and less than 10 is denoted as B)
–	3.6 nM	0.15 nM	–	CCC[C@H]1C(=O)N[C@@H]([C@@H](C)CC)C(=O)N(C)CC(=O)N(C)[C@H]2C/C=C\CCN(C2=O)[C@@H](Cc2ccc(C)cc2)C(=O)N(C)CC(=O)N[C@@H](CCc2ccc(C(F)(F)F)c(OC)c2)C(=O)N2C[C@H](C)C[C@H]2C(=O)NC2(CC(C)(C)C2)C(=O)N(C)[C@@H](C2CCCC2)C(=O)N(C)[C@H](C(=O)N(C)C)CC(=O)N1C [PP1890]	–	–	–	–	A (a compound having 10 or more and less than 20 is denoted as A)	B (a compound having 3 or more and less than 10 is denoted as B)
–	12.5 nM	0.2 nM	–	CC[C@H](C)[C@@H]1NC(=O)[C@H](CC2CC2)N(C)C(=O)C[C@@H](C(=O)N(C)CC)N(C)C(=O)[C@H](C2CCCC2)N(C)C(=O)C2(CC(C)(C)C2)NC(=O)[C@@H]2C[C@@H](C)CN2C(=O)[C@H](CCc2ccc(C(F)(F)F)c(OC)c2)NC(=O)CN(C)C(=O)[C@H](Cc2ccc(C)cc2)N2CC/C=C\C[C@@H](C2=O)N(C)C(=O)CN(C)C1=O [PP1902]	–	–	A (a compound having 10 or more and less than 20 is denoted as A)	A (a compound having 10 or more and less than 20 is denoted as A)	–	–
0.43 nM	57.9 nM	–	–	CCO[C@@H]1C[C@H]2C(=O)NC3(CCC3)C(=O)N(C)[C@@H](C3CCCC3)C(=O)N(C)[C@H](C(=O)N(C)C)CC(=O)N(C)[C@@H](CC3CCCC3)C(=O)N[C@@H]([C@@H](C)CC)C(=O)N(C)CC(=O)N(C)[C@H]3C/C=C\CCN(C3=O)[C@@H](Cc3ccc(C)cc3)C(=O)N(C)CC(=O)N[C@@H](CCc3ccc(C4CC4)c(Cl)c3)C(=O)N2C1 [PP2684]	A (a compound having 10 or more and less than 20 is denoted as A)	A (a compound having 10 or more and less than 20 is denoted as A)	–	–	–	–
